# According to PMC8224775, “Five Tetramic Acid Derivatives Isolated from the Iranian Fungus Colpoma quercinum CCTU A372” (Biomolecules, 2021):
# Marks after values point to notes of the source that are not given here.
# Tests used:
# [1] = test system: Acinetobacter baumanii DSM 30008; experiment: Antimicrobial serial dilution assay (MIC); assay type: cell-based; settings: Acinetobacter baumannii, DSM30008, serial dilution 67 to 0.5 µg/mL, overnight, read-out: MIC
# Protocol: (§1) Antimicrobial activity was determined by our established protocol, according to Becker et al.. In general, all of the pure compounds were dissolved in MeOH with a concentration of 1 mg/mL. Assessment of the antimicrobial activity was determined using the serial dilution assay method to calculate the minimum inhibitory concentration (MIC). In this method, the compounds were diluted in a range between 67 and 0.5 µg/mL in 96 well-plate and incubated with the test organism overnight. The next day, growth of the test organisms was visually observed, and MIC was determined in the lowest concentration where a clear zone (no growth of test organism) was observed. In our attempt for novel anti-infective compounds, an established standard protocol using various organisms representing a broad spectrum of pathogens of clinical interest, as well as sensitive indicator strains, was used (bacteria: Bacillus subtilis DSM 10, Staphylococcus aureus DSM 346, Acinetobacter baumanii DSM 30008, Chromobacterium violaceum DSM 30191, Escherichia coli DSM 1116 and Pseudomonas aeruginosa PA14; mycobacteria: Mycobacterium smegmatis ATCC 700084 and fungi: Candida albicans DSM 1665, Schizosaccharomyces pombe DSM 70572, Mucor hiemalis DSM 2656, Wickerhamomyces anomala DSM 6766 and Rhodotorula glutinis DSM 10134). Methanol as a solvent to dissolve the pure compounds was used as the negative control. Oxytetracycline, ciprofloxacin, gentamycin, and kanamycin were used as positive controls against bacteria, whereas nystatin was used against fungi. A detailed experimental procedure can be found in the SI.
# (§2) Protocol: Antimicrobial Activity Assay
# (§3) The assay was conducted as a minimum inhibitory concentration (MIC) assay in 96-well round- bottom microtiter plates using the parameters summarized in Table S1 and as already described in [S1]. Stocks of the test organisms were generated by growing the organisms overnight in 50 mL shaking flasks filled with 25 mL of the growth medium at 140r p m ( media and temperatures see Table S1). If the organisms were well grown the next day, which was checked by the occurrence of an optical density (OD) […] of the suspension (OD600 nm for bacteria, OD548 nm for fungi and M. smegmatis), aliquots of these were stored in 1.5 mL reaction tubes in a freezer at −80 °C for up to 12 months. Upon use, aliquots were unthawed and the OD of the suspension measured and adjusted by diluting with the respective growth medium. OD600 nm was adjusted to 0.01 and OD548 nm to 0.1. Subsequently, 150 μ L of the adj usted suspensions were added to all wells of a 96-well microtiter plate (one test organism per plate). In row A, additional 130 μ L of suspensions plus 20 μ L of the test compounds (1 mg/mL) and the controls (one compound/column) were added. MeOH was used as negative controls, while different positive controls (references) were used for the test organisms (see Table S1). Then, starting from row A, 150 μ L of t he suspension were transferred to the next row, the contents thoroughly mixed, and 150 μ L transferred to the following row. The remaining 150 μ L after row H were discarded. […]
# (§4) of the test compounds, ranging from 66.7 μg/mL in row A to 0.52 μ g/mL in row H. The microtiter plates were then incubated overnight on a microplate shaker at 800 rpm at 30 or 37 °C (see Table S1) and were visually evaluated the next day. The MIC is defined as the lowest concentration where no growth of the test organism (clear zone) was observed. A lower MIC thus corresponds to a higher antimicrobial activity of the test compound.
# (§5) Table S1: MIC assay experiment parameters test organism strain No growth incubation positive control […]
# (§6) Candidaa lbicans DSM1665 MYC3 30 nystatin 1.0mg/ mL
# (§7) Schizosaccharomyces DSM70572 MYC3 30 nystatin 1.0mg/ mL
# (§8) Mucor hiemalis DSM2656 MYC3 30 nystatin 1.0mg/ mL
# (§9) Wickerhamomyces DSM6766 MYC3 30 nystatin 1.0mg/ mL
# (§10) Rhodotorula glutinis DSM10134 MYC3 30 nystatin 1.0mg/ mL
# (§11) 1 MHB: Müller-Hinton Broth (SN X927.1, CarlRoth GmbH, Karlsruhe, Germany) […]
# [2] = test system: Staphylococcus aureus DSM 346; experiment: Antimicrobial serial dilution assay (MIC); assay type: cell-based; settings: DSM346, serial dilution 67 to 0.5 µg/mL, overnight, read-out: MIC
# Protocol: as §1, §2, §3
# as §4, with “A lower MIC thus corresponds to a higher antimicrobial activity of the test compound.” left out
# Escherichia coli = experiment: Antimicrobial serial dilution assay (MIC); assay type: cell-based; settings: serial dilution 67 to 0.5 µg/mL, overnight, read-out: MIC
# Protocol: as §1, §2, §3, §4, §5
# Escherichia coli DSM1116 MHB1 37 oxytetracyclin 1.0mg/ mL […]
# as §6, §7, §8, §9
# (§12) Rhodotorula glutinis DSM10134 MYC3 30 nystatin 1.0mg/ mL […]
# Bacillus subtilis DSM 10 = experiment: Antimicrobial serial dilution assay (MIC); assay type: cell-based; settings: DSM10, serial dilution 67 to 0.5 µg/mL, overnight, read-out: MIC
# Protocol: as §1, §2, §3, §4
# Table S1: MIC assay experiment parameters test organism strain No growth incubation positive control
# Bacillus subtilis DSM10 MHB1 30 oxytetracyclin 1.0mg/ mL […]
# as §6, §7, §8, §9, §12
# [3] = test system: Rhodotorula glutinis DSM 10134; experiment: Antimicrobial serial dilution assay (MIC); assay type: cell-based; settings: serial dilution 67 to 0.5 µg/mL, overnight
# Protocol: as §1, §2, §3, §4, §5, §6, §7, §8, §9, §10, §11
# Pichia anomala DSM 6766 = experiment: Antimicrobial serial dilution assay (MIC); assay type: cell-based; settings: serial dilution 67 to 0.5 µg/mL, overnight
# Protocol: as §1, §2, §3, §4, §5, §6, §7, §8, §9, §10, §11
# Mucor hiemalis DSM 2656 = experiment: Antimicrobial serial dilution assay (MIC); assay type: cell-based; settings: serial dilution 67 to 0.5 µg/mL, overnight
# Protocol: as §1, §2, §3, §4, §5, §6, §7, §8, §9, §10, §11
# [4] = test system: endocervical adenocarcinoma KB-3.1; experiment: 5-day MTT cytotoxicity assay; assay type: cell-based, human; settings: Homo sapiens, KB 3-1, 120 h
# Protocol: (§13) Cytotoxicity of compounds 1‒5 was initially determined against two cancer cell lines (mouse fibroblasts L-929 and human endocervical adenocarcinoma KB-3.1) by using a 5-day MTT assay according to an established procedure.
# (§14) In 96-well flat-bottom microtiter plates, cell lines with serial dilution of the test compounds (final range: 37 to 0.6 × 10^−3 µg/mL) were incubated for five days. After five days, the cells were dyed using 3-(4,5-dimethyl-2-thiazolyl)-2,5-diphenyl-2H-tetrazolium bromide (MTT), which is only converted to its purple formazan derivative by living cells. The half-maximum inhibitory concentration (IC50 in µM) was calculated via the colorimetric method in a microplate reader using absorption at 595 nm. In addition, when an inhibition with an IC50 < 50 µM was observed, other cell lines were subjected to the test compounds to evaluate their further cytotoxicity: PC-3 (human prostate adenocarcinoma), SK-OV-3 (human ovary adenocarcinoma), MCF-7 (human breast adenocarcinoma), A-431 (human squamous carcinoma), and A549 (human lung carcinoma). A detailed procedure, including the colorimetric method to determine the cell viability, can be found in the SI.
# (§15) Protocol: Cytotoxicity Assay
# (§16) The assay was co nducted in 9 6-well flat -botto m microtiter plates using the parameters summarised in T able S2 and as described in [S2]. Cell l ines L-929 and KB-3.1 were incubated at 37 °C under 10 % CO2 in Gibco™ DMEM medium (T her mo Fisher Scientific, Waltham, M A, USA) supplemented with 10 % FBS. A microtiter plate was filled wit h 120 μ L o f this suspensio n (50,000/mL) in each well. Seperatel y, a nother microti ter plate wa s filled wit h 100 μL of gro wth medium in each well. Then, 50 μ L of the test compound solutions (1 mg/mL) were given to wells of the first column in two replicates (one compound per row). Cells without additives and MeOH were used as nega tive controls. Starting from the first column, 50 μ L of the solutions were gradually transferred to the next column, the contents thoroughly mixed, and 50 μL transferred to the following column. This created a serial dilution of the test compounds ranging from 333 μ g/mL to 1.9×10-3 μg/ mL. T he re mai ni ng 50 μ L after column twelve were discarded. From this microtiter plate, 60 μ L of the solutions fro m 111 μ g/mL to 1.9×10-3 μg/mL we r e give n to t he firs t p late co ntai ni ng 1 2 0 μ L of the cell suspensions (i.e. the highest co ncentration 333 μ g/ mL wa s no t used). T his resul ted in fi nal compo und concentratio ns rangi ng fro m 37 μ g/mL to 0.6×10-3 μg/ mL. After 5 days o f incubatio n under the aforementioned incubatio n conditions, the half maximu m inhibitory co ncentrations (IC50) were deter mined using a colorimetric tetrazolium d ye MT T assa y [S3]. For this, 20 μ L of a 5 mg/mL solution of 3-(4,5-dimethyl-2 -thiazolyl) -2,5-diphenyl-2H-tetrazolium br omide (MTT) were added to each well and incubated for two hours at 37 °C. T hen, the microtiter plate was ce ntrifuged (3,000 rpm, 5 min) and the supernatant removed by holding the plate upside-down and gentle shaking. Afterwards, the wells were washed using 100 μ L of phosphate buffered saline (PBS). T he plate was a gain ce ntrifuged a nd the supernata nt re mo ved as described before.
# (§17) T hen, 1 0 0 μ L of an isopropanol:HCl solution (1L isopropanol+4 mL HCl 37 % w/v) were added to the wells. After incubating for 10 min at ambient temperature, the absorption of the wells at 595 nm was measured with an Infinite® 200 Pro microplate reader (TECAN, Männedorf, Schweiz). The absorption values of the cells without additives were averaged and set to 100 % cell viability. Then, the means of absorption of the two compound replicates were set in relation to the blank media. T hese percentage values were plotted against the concentratio n range (37 μ g/mL to 0.6×10−3 μg/ mL). T he IC50 value was r ead fro m the plot (in μ g/ mL) a nd the uni ts conversed […]
# to μM. […]
# [5] = test system: ovarian carcinoma SK-OV-3; experiment: 5-day MTT cytotoxicity assay; assay type: cell-based, human; settings: Homo sapiens, SK-OV-3, 120 h
# Protocol: as §13, §14, §15, §16, §17
# to μM. […]
# [6] = test system: squamous cell carcinoma A-431; experiment: 5-day MTT cytotoxicity assay; assay type: cell-based, human; settings: Homo sapiens, A-431, 120 h
# Protocol: as §13, §14, §15, §16, §17
# to μM. […]
# mouse fibroblast L-929 = experiment: 5-day MTT cytotoxicity assay; assay type: cell-based; settings: Mus musculus, L929, 120 h
# Protocol: as §13, §14, §15, §16, §17
# to μM. […]
# [7] = test system: human prostate cancer PC-3; experiment: 5-day MTT cytotoxicity assay; assay type: cell-based; settings: 120 h
# Protocol: as §13, §14, §15, §16, §17
# to μM. […]
# [8] = test system: human lung carcinoma A-549; experiment: 5-day MTT cytotoxicity assay; assay type: cell-based; settings: A549, 120 h
# Protocol: as §13, §14, §15, §16, §17
# to μM. […]
# [9] = test system: human breast adenocarcinoma MCF-7; experiment: 5-day MTT cytotoxicity assay; assay type: cell-based; settings: Homo sapiens, MCF7, 120 h
# Protocol: as §13, §14, §15, §16, §17
# to μM. […]
smiles,measurement,setting,value
"O=C(O)c1cn(C2CC2)c2cc(N3CCNCC3)c(F)cc2c1=O [ciprofloxacin, reference compound]",MIC,[1],0.26 µg/mL
"CN(C)[C@@H]1C(O)=C(C(N)=O)C(=O)[C@@]2(O)C(O)=C3C(=O)c4c(O)cccc4[C@@](C)(O)[C@H]3[C@H](O)[C@@H]12 [oxytetracycline, reference compound]",MIC,[2],1.7 µg/mL
same,MIC,Escherichia coli,1.7 µg/mL
same,MIC,Bacillus subtilis DSM 10,8.3 µg/mL
"C[C@@H]1[C@H](O)[C@@H](C)/C=C/C=C/CC/C=C/C=C/C=C/C=C/C(O[C@H]2O[C@H](C)[C@@H](O)[C@H](N)[C@@H]2O)CC2O[C@](O)(CC(O)C(O)CCC(O)CC(O)CC(O)CC(=O)O[C@H]1C)CC(O)C2C(=O)O (some centres unmarked) [nystatin, reference compound]",MIC,[3],1.0 ^b µg/mL
same,MIC,Pichia anomala DSM 6766,4.2 ^b µg/mL
same,MIC,Mucor hiemalis DSM 2656,4.2 ^b µg/mL
"C/C(=C\c1csc(C)n1)[C@@H]1C[C@@H]2O[C@]2(C)CCC[C@H](C)[C@H](O)[C@@H](C)C(=O)C(C)(C)[C@@H](O)CC(=O)O1 [epothilone B, reference compound]",IC50,[4],0.053 nM
same,IC50,[5],0.24 nM
same,IC50,[6],0.083 nM
same,IC50,mouse fibroblast L-929,0.83 nM
same,IC50,[7],0.27 nM
same,IC50,[8],0.055 nM
same,IC50,[9],0.071 nM
